Experimental data: patent US8680139B2 (Progenra, priority 2009, dated 2014)

Legend:
[1] = biological target: T1, USP7 (Homo sapiens, UniProt Q93009); experiment: USP7, Ub-PLA2 assay; type: biochemical; conditions: for EC50: Ub-PLA2 / NBD C6-HPC fluorescence, 30 minute preincubation, read-out: EC50 for inhibition of USP7; for USP7 inhibition, result in words: USP7, Ub-PLA2 assay
T1 construct: full length human USP7 protein; made in house
Summary of the method: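 Compounds tested against USP7 with DMSO vehicle control and NEM-treated wells as background. Fluorescence (RFU) read-out; % inhibition normalized per plate to mean DMSO and NEM controls.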

[2] = HCT-116 Cellular Cytotoxicity Assay; conditions: human, HCT-116 cells, pH 7.2
Experimental: The purpose of this assay is to determine if any of the synthesized compounds are cytotoxic against HCT-116 cells, as measured by resazurin metabolism. Resazurin is metabolized only by living cells from a non-fluorescent molecule into Resorufin, a highly red fluorescent dye. […] The cells were cultured in an incubator at 37° C. in 5% CO2 and 95% humidified air. […] The final concentration DMSO was 0.5% (v/v) in all samples. The plates were returned to the incubator for 72 hours. Following 72 hours of test compound exposure, 10 μL of 0.2 mg/mL Resazurin (Sigma) in phosphate buffered saline was added to each well and the plate was returned to the incubator for 3-6 hours. Since living cells metabolize Resazurin, the fluorescence of the reduction product of Resazurin was measured using a microplate fluorometer with λex=531 nm and λem=590 nm filters. Resazurin dye in medium without cells was used to determine the background, which was subtracted from the data for all experimental wells.

[3] = tested on: HCT-116 cells; experiment: HCT-116 Combination Cytotoxicity Assay; type: cell-based, human; conditions: constant ratio, 72 hours

T1 sequence (Q93009 whole entry): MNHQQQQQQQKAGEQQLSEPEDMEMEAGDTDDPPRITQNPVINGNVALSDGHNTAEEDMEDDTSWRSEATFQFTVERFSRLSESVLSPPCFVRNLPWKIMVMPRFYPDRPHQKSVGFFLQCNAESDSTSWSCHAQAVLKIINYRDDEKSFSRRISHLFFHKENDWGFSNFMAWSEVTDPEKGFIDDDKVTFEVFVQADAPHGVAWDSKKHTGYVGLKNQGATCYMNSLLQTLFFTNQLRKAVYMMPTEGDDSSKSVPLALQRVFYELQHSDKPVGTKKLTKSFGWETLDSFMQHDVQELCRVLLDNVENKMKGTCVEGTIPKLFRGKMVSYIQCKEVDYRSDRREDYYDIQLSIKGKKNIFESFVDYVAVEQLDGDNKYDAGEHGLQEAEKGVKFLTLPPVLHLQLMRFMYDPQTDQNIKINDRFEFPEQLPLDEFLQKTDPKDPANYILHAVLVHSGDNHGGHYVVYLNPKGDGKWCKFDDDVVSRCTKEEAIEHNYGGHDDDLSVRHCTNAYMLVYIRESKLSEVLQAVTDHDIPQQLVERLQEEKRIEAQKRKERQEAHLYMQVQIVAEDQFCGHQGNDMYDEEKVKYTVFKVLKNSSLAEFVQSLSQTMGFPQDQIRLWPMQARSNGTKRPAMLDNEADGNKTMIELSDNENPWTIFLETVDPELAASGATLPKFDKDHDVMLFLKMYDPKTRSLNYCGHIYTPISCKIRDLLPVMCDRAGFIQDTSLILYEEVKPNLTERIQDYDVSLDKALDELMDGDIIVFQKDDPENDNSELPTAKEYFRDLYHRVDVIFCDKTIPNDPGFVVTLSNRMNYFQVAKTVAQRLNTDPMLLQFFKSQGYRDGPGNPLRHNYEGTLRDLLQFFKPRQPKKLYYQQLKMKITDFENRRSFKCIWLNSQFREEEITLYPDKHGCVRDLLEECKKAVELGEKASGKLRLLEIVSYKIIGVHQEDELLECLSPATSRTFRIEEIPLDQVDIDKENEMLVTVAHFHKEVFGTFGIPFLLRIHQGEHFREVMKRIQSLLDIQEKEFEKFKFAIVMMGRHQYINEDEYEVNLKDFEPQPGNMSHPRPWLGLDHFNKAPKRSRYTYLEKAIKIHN

Structure (SMILES) | EC50 [1] | EC50 at 72 h [2] | other results
O=C(Nc1ccon1)c1cc([N+](=O)[O-])c(Sc2c(Cl)cncc2Cl)s1 [Example 171, 5-((3,5-dichloropyridin-4-yl)thio)-N-(isoxazol-3-yl)-4-nitrothiophene-2-carboxamide] | ≤ 1 µM | 10.9 µM | –
CN(C)CCC(=O)c1cc([N+](=O)[O-])c(Sc2ccc(Cl)cc2Cl)s1 [Example 24, 1-[5-(2,4-dichlorophenyl)sulfanyl-4-nitro-2-thienyl]-3-dimethylamino-propan-1-one] | 1 to 10 µM | 27.3 µM | –
CC(=O)c1cc([N+](=O)[O-])c(Sc2c(Cl)cccc2Cl)s1 [Example 7, 1-[5-(2,6-Dichlorophenylsulfanyl)-4-nitro-2-thienyl]ethanone] | 1 to 10 µM | 30.6 µM | –
CC(=O)c1cc([N+](=O)[O-])c(Sc2ccc(Cl)cc2Cl)s1 [Example 2, 1-[5-(2,4-Dichlorophenylsulfanyl)-4-nitro-2-thienyl]ethanone] | 1 to 10 µM | 16.1 µM | –
O=C(Nc1cc(C2CC2)n[nH]1)c1cc([N+](=O)[O-])c(Sc2c(Cl)cncc2Cl)s1 [Example 123, N-(3-cyclopropyl-1H-pyrazol-5-yl)-5-((3,5-dichloropyridin-4-yl)thio)-4-nitrothiophene-2-carboxamide] | ≤ 1 µM | 11 µM | USP7 inhibition, result in words [1]: Particularly good results
CN1CCC(NC(=O)c2cc(C#N)c(Sc3c(Cl)cncc3Cl)s2)CC1 [Example 203, 4-cyano-5-((3,5-dichloropyridin-4-yl)thio)-N-(1-methylpiperidin-4-yl)thiophene-2-carboxamide] | 1 to 10 µM | 10.4 µM | –
CC(=O)c1cc([N+](=O)[O-])c(Oc2ccc(Cl)cc2Cl)s1 [Example 271, 1-(5-(2,4-dichlorophenoxy)-4-nitrothiophen-2-yl)ethanone] | 1 to 10 µM | 8.54 µM | –
O=C(Nc1cccc2cnccc12)c1cc([N+](=O)[O-])c(Sc2c(Cl)cncc2Cl)s1 [Example 179, 5-((3,5-dichloropyridin-4-yl)thio)-N-(isoquinolin-5-yl)-4-nitrothiophene-2-carboxamide] | ≤ 1 µM | 4.23 µM | –
CN(C)CCOc1ccc(NC(=O)c2cc([N+](=O)[O-])c(Sc3c(Cl)cncc3Cl)s2)cc1 [Example 192, 5-((3,5-dichloropyridin-4-yl)thio)-N-(4-(2-(dimethylamino)ethoxy)phenyl)-4-nitrothiophene-2-carboxamide] | ≤ 1 µM | 4.9 µM | –
Cc1cnc(CNC(=O)c2cc([N+](=O)[O-])c(Sc3c(Cl)cncc3Cl)s2)cn1 [Example 103, 5-((3,5-dichloropyridin-4-yl)thio)-N-((5-methylpyrazin-2-yl)methyl)-4-nitrothiophene-2-carboxamide] | ≤ 1 µM | 7.18 µM | –
CN(C)CCCOc1ccc(NC(=O)c2cc([N+](=O)[O-])c(Sc3c(Cl)cncc3Cl)s2)cc1 [Example 193, 5-[(3,5-dichloro-4-pyridyl)sulfanyl]-N-[4-(3-dimethylaminopropoxy)phenyl]-4-nitro-thiophene-2-carboxamide] | ≤ 1 µM | 3.37 µM | USP7 inhibition, result in words [1]: Particularly good results
CN1C(C)(C)CC(NC(=O)c2cc([N+](=O)[O-])c(Sc3c(Cl)cncc3Cl)s2)CC1(C)C [Example 188, 5-((3,5-dichloropyridin-4-yl)thio)-4-nitro-N-(1,2,2,6,6-pentamethylpiperidin-4-yl)thiophene-2-carboxamide] | ≤ 1 µM | 7.9 µM | –
CC(=O)c1cc([N+](=O)[O-])c(Sc2ccc(Cl)c(Cl)c2)s1 [Example 8, 1-[5-(3,4-Dichlorophenylsulfanyl)-4-nitro-2-thienyl]ethanone] | 1 to 10 µM | 14.8 µM | –
COc1ccc(NC(=O)c2cc([N+](=O)[O-])c(Sc3c(Cl)cncc3Cl)s2)cc1 [Example 155, 5-((3,5-dichloropyridin-4-yl)thio)-N-(4-methoxyphenyl)-4-nitrothiophene-2-carboxamide] | ≤ 1 µM | 5.49 µM | USP7 inhibition, result in words [1]: Particularly good results
CS(=O)(=O)c1ccc(NC(=O)c2cc([N+](=O)[O-])c(Sc3c(Cl)cncc3Cl)s2)cc1 [Example 129, 5-((3,5-dichloropyridin-4-yl)thio)-N-(4-(methylsulfonyl)phenyl)-4-nitrothiophene-2-carboxamide] | ≤ 1 µM | 5.89 µM | USP7 inhibition, result in words [1]: Particularly good results
O=C(Nc1nccs1)c1cc([N+](=O)[O-])c(Sc2c(Cl)cncc2Cl)s1 [Example 172, 5-((3,5-dichloropyridin-4-yl)thio)-4-nitro-N-(thiazol-2-yl)thiophene-2-carboxamide] | ≤ 1 µM | 12.9 µM | –
O=C(Nc1cnc2ccccc2c1)c1cc([N+](=O)[O-])c(Sc2c(Cl)cncc2Cl)s1 [Example 173, 5-((3,5-dichloropyridin-4-yl)thio)-4-nitro-N-(quinolin-3-yl)thiophene-2-carboxamide] | ≤ 1 µM | 5.15 µM | USP7 inhibition, result in words [1]: Particularly good results
Cc1cc(NC(=O)c2cc([N+](=O)[O-])c(Sc3c(Cl)cncc3Cl)s2)n(CCN(C)C)n1 [Example 182, 5-((3,5-dichloropyridin-4-yl)thio)-N-(1-(2-(dimethylamino)ethyl)-3-methyl-1H-pyrazol-5-yl)-4-nitrothiophene-2-carboxamide] | ≤ 1 µM | 14.3 µM | –
NS(=O)(=O)c1ccc(NC(=O)c2cc([N+](=O)[O-])c(Sc3c(Cl)cncc3Cl)s2)cc1 [Example 160, 5-((3,5-dichloropyridin-4-yl)thio)-4-nitro-N-(4-sulfamoylphenyl)thiophene-2-carboxamide] | ≤ 1 µM | 6.17 µM | –
CC(=O)c1cc(C#N)c(Sc2ccc(Cl)cc2Cl)s1 [Example 21, 1-[4-cyano-5-(2,4-dichlorophenyl)sulfanyl-2-thienyl]ethanone] | > 10 µM | 32.5 µM | –
O=C(Nc1ccc(N2CCOCC2)cc1)c1cc([N+](=O)[O-])c(Sc2c(Cl)cncc2Cl)s1 [Example 157, 5-((3,5-dichloropyridin-4-yl)thio)-N-(4-morpholinophenyl)-4-nitrothiophene-2-carboxamide] | ≤ 1 µM | 27.3 µM | –
O=C(Nc1ccc2ncccc2c1)c1cc([N+](=O)[O-])c(Sc2c(Cl)cncc2Cl)s1 [Example 180, 5-((3,5-dichloropyridin-4-yl)thio)-4-nitro-N-(quinolin-6-yl)thiophene-2-carboxamide] | ≤ 1 µM | 7.62 µM | –
CN1CCC(NC(=O)c2cc([N+](=O)[O-])c(Sc3c(Cl)cncc3Cl)s2)CC1 [Example 168, 5-((3,5-dichloropyridin-4-yl)thio)-N-(1-methylpiperidin-4-yl)-4-nitrothiophene-2-carboxamide] | ≤ 1 µM | 6.52 µM | CI (mean ± SD) ED75 ([3]; combination with Chlormethine): 0.70 ± 0.10; CI (mean ± SD) ED90 ([3]; combination with Chlormethine): 0.78 ± 0.13; CI (mean ± SD) ED75 ([3]; combination with Doxorubicin): 0.73 ± 0.09; CI (mean ± SD) ED90 ([3]; combination with Doxorubicin): 0.81 ± 0.11; CI (mean ± SD) ED75 ([3]; combination with Etoposide): 0.54 ± 0.10; CI (mean ± SD) ED90 ([3]; combination with Etoposide): 0.59 ± 0.14
COc1ccc(NC(=O)c2cc([N+](=O)[O-])c(Sc3c(Cl)cncc3Cl)s2)cn1 [Example 175, 5-((3,5-dichloropyridin-4-yl)thio)-N-(6-methoxypyridin-3-yl)-4-nitrothiophene-2-carboxamide] | ≤ 1 µM | 7.23 µM | –
CN(C)CCNc1ccc(NC(=O)c2cc([N+](=O)[O-])c(Sc3c(Cl)cncc3Cl)s2)cn1 [Example 238, 5-((3,5-dichloropyridin-4-yl)thio)-N-(6-((2-(dimethylamino)ethyl)amino)pyridin-3-yl)-4-nitrothiophene-2-carboxamide] | ≤ 1 µM | 3.96 µM | –
CN(C)CCC(O)c1cc([N+](=O)[O-])c(Sc2ccc(Cl)cc2Cl)s1 (stereo not drawn) [Example 25, 1-[5-(2,4-dichlorophenyl)sulfanyl-4-nitro-2-thienyl]-3-dimethylamino-propan-1-ol] | 1 to 10 µM | 15.2 µM | –
